{"source": "patent US20130150399A1", "about": "“INHIBITORS OF THE UNFOLDED PROTEIN RESPONSE AND METHODS FOR THEIR USE” (The Board of Trustees of the Leland Stanford Junior …, priority 2006, published 2013)", "key": {"[1]": {"test_system": "HT1080 tumor xenografts", "assay": "Immunohistochemical analysis of tumor xenografts (pimonidazole, cleaved caspase-3)", "format": "in vivo, mice", "details": "three doses, 50 mg/kg", "experimental": "Tumor-bearing mice were injected i.p. with hypoxyprobe (50 mg/kg) 1 hour prior to sacrifice. Mice were euthanised under anesthesia by cervical dislocation, and tumors were surgically resected, embedded in OCT compound (Sakura Tissue Tek), and frozen at −80° C. Tumors were sectioned at 8 μm, fixed in 4% paraformaldehyde, and blocked in PBS-4% BSA. Tissue sections were incubated overnight in block solution containing antisera specific for hypoxyprobe (1:250) and cleaved caspase-3 (1:400). Slides were washed three times with block solution and incubated for 2 hours at room temperature with anti-mouse Alexa 488 or anti-rabbit Alexa 594 (Invitrogen, San Diego, Calif.). Slides were washed five times in block solution, and coverslips mounted with Permount supplemented with DAPI.\nImmunohistochemical analysis of tumor xenografts. […] D. Quantification of tumor immunohistochemistry. At least 8 randomly chosen fields (>300 cells/field) per tumor were scored for pimonidazole and cleaved caspase-3 staining. A minimum of 3 tumors (250-300 mm^3 at harvest) were analyzed per treatment group. […]\nWe further examined tumors from control and irestatin-treated mice for differences in cell survival. […] The increase in apoptosis was most pronounced in hypoxic tissue regions of tumors, as determined by co-immunoreactivity for pimonidazole adducts (FIG. 14C, bottom panel). […]"}, "[2]": {"test_system": "PANC1 pancreatic adenocarcinoma cells", "assay": "PANC1 tumor growth in vivo", "parameters": "species or system nude mice", "details": "60 mg/kg ip bolus every 48 hours, 5 doses", "experimental": "Dose: 60 mg/kg ip bolus injection every 48 hours. 5 total doses. 5-7 tumors per group. PANC1 pancreatic adenocarcinoma cell line.\nPANC1 pancreatic adenocarcinoma cells were implanted subcutaneously into nude mice. Mice were then given a bolus injection of one of the inventive irestatins (1401, 9337, 3611 or 9389) at a dose of 60 mg/kg every 48 hours for a total of 5 doses, with 5-7 tumors being treated per group."}, "[3]": {"test_system": "RPMI 8226 myeloma cells", "assay": "Cell proliferation assay, RPMI 8226", "format": "cell-based, human", "details": "dose-dependent"}, "[4]": {"test_system": "Grp78", "assay": "Western immunoblot of Grp78, HT1080 cells", "format": "cell-based, human", "details": "irestatin 9389 2.5 μM, 16 hours (also 24 or 36 hours)", "experimental": "(§1) Cells (2×10^6) were cultured in 10-cm dishes, collected using a cell scraper at 4° C., and lysed by addition of 150 μl cell lysis buffer [50 mM Tris pH 7.4, 150 mM NaCl, 10% glycerol, 0.5% Triton X-100. 0.5% NP-40, 2 mM Na3VO4, 20 mM beta-glycerophosphate, 10 mM NaF, 1 mM DTT, 1 mM PMSF). Lysates were centrifuged for 5 min at 10,000×g, and proteins (˜40 μg) were resolved by SDS-PAGE followed by semi-dry transfer to nitrocellulose membranes. Membranes were blocked in TBS-5% milk supplemented with 0.1% Tween-20. The blots were then probed overnight with relevant antibodies, washed, and incubated for 2 hours with species-specific secondary antibodies conjugated to horseradish peroxidase. After washing in block solution, immunoreactive material was detected by enhanced chemiluminescence (SuperSignal West Dura Extended, Pierce, Inc., Rockville, Ill.).\n(§2) HT1080 cells were exposed to DMSO vehicle (lane 1), irestatin 9389 (2.5 μM; lane 2) for 16 hours or Tm (5 μg/ml; lane 3) for 8 hours. Following treatments, cells were harvested, lysed, and analyzed by immunoblotting using anti-Grp78 antibody (top) or anti-actin (bottom) as a loading control. […] Cell lysates were analyzed by Western immunoblotting using anti-IRE1α (bottom) or anti-phospho-IRE1α antibodies (top). […] Lysates were analyzed by Western blot using antisera specific for phospho-JNK1 (top) or total JNK1 (bottom). […]"}, "[5]": {"test_system": "IRE1α", "assay": "Western immunoblot of total IRE1α, HT1080 cells", "format": "cell-based, human", "details": "2.5 μM, 16 hours", "experimental": "as §1, §2"}}}
{"compound": "Cc1csc(NC(=O)CSc2nc3c(c(C(F)(F)F)c2C#N)CCC3)n1", "note": "[Compound 9389]", "values": [{"measurement": "cleaved caspase-3 in tumors relative to vehicle", "setting": "[1]", "result": "significant increase in cleaved caspase-3"}, {"measurement": "apoptotic fraction of hypoxic cells in tumors", "setting": "[1]; cleaved caspase-3 in pimonidazole-positive cells", "result": "~45", "unit": "%"}, {"measurement": "tumor growth", "setting": "[2]", "result": "significant tumor growth was observed in untreated mice, but not in mice treated with the irestatins"}, {"measurement": "growth of RPMI 8226", "setting": "[3]", "result": "strongly inhibited the growth"}, {"measurement": "Grp78 levels", "setting": "[4]", "result": "no effect on Grp78 levels"}, {"measurement": "total level of IRE1α", "setting": "[5]", "result": "no significant changes in the total level of IRE1α"}]}
